The values that follow come from patent US8097752B2, “Antiprotozoal ring-substituted phospholipids” (priority 2002, dated 2012).

Structures can show the parent of a compound that is named as a salt. Bounds are passed on as bounds.

Assay [1] has as its system promastigote forms of Leishmania infantum. The experiment in a line: In vitro antileishmanial activity in promastigote cultures (MTT), L. infantum. Type of assay: cell-based, Leishmania infantum MHOM/TN/80/IPT1/LEM 235. To be noted: promastigotes, 72 h incubation, mean ± SEM, n = 3-4 (each run in duplicate), read-out: IC50 (μM) L. infantum MON 235. The method, then: (§1) Determination of in Vitro Antileishmanial Activity in Promastigote Cultures.
(§2) The effect of the phospholipids according to the present invention against the promastigote forms of Leishmania donovani and Leishmania infantum was evaluated using an MTT (3-(4,5-dimethylthiazol-2yl)-2,5-diphenyltetrazolium bromide)-based enzymatic method as a marker of cell viability and was compared with that of the ether phospholipid hexadecylphosphocholine (Miltefosine). Thus, promastigotes of Leishmania infantum MHOM/TN/80/IPT1/LEM 235 and Leishmania donovani MHOM/IN/80/DD8/LEM 703, were grown in RPMI 1640 supplemented with 10% FCS, L. glutamine and antibiotics, at 26° C. All new compounds were dissolved in DMSO to a final concentration of 9.625 mM and linear 3-fold dilutions were done in the culture medium. 25 μL of promastigote culture at 5×10^5 cells/mL were cultured in a 96-well flat-bottom plate (Costar 3696), and incubated with 25 μL of different drug concentrations at 26° C. After 72 h, 10 μL of 5 mg/mL MTT in PBS (SIGMA M2128) were added and incubation was continued for 3 h. The reaction was stopped by the addition of 50 μL of 50% isopropanol, 10% SDS under gentle shacking for 30 min. Absorbance was measured at 550 nm with reference at 620 nm in a TRITURUS microplate reader.

For assay [2], the system named is promastigote forms of Leishmania donovani. The experiment in a line: In vitro antileishmanial activity in promastigote cultures (MTT), L. donovani. To be noted: promastigotes, 72 h incubation, mean ± SEM, n = 3-4 (each run in duplicate), read-out: IC50 (μM) L. donovani MON 703. Type of assay: cell-based, Leishmania donovani MHOM/IN/80/DD8/LEM 703. The method, then: as §1, §2

Regarding `CCCCCCCCCCCC=C1CCC(OCCOP(=O)([O-])OCC[N+]2(C)CCCCC2)CC1` (stereo not drawn) [Example 2, 1-{2-{[(4-Dodecylidenecyclohexyloxy)ethyloxy]hydroxyphosphinyloxy}ethyl}-1-methylpiperidinium inner salt], the IC50 (usually the concentration that inhibits the measured activity by half) was 23.1 ± 3.6 µM in assay [1] and 22 ± 3.25 µM in assay [2].
As to `CCCCCCCCCCCCCC=C1CCC(OCCOP(=O)([O-])OCC[N+]2(C)CCOCC2)CC1` (stereo not drawn) [Example 6, 1-{2-{[(4-Tetradecylidenecyclohexyloxy)ethyloxy]hydroxyphosphinyloxy}ethyl}-1-methylmorpholinium inner salt], the IC50 in assay [1] is 15.5 ± 1.8 µM; in assay [2] it was 38.6 ± 3.2 µM.
For `CCCCCCCCCCCCCCCC=C1CCC(OCCOP(=O)([O-])OCC[N+](C)(C)C)CC1` (stereo not drawn) [Example 7, 1-{2-{[(4-Hexadecylidenecyclohexyloxy)ethyloxy]hydroxyphosphinyloxy}ethyl}-N,N,N-trimethylammonium inner salt], in that order: 21.2 ± 2.6 µM and 45.1 ± 7.2 µM.
For `C[N+](C)(C)CCOP(=O)([O-])OCCCCCCCCCCCC12CC3CC(CC(C3)C1)C2` [Example 30, 1-{2-[(11-Adamantylundecyloxy)hydroxyphosphinyloxy]ethyl}-N,N,N-trimethylammonium inner salt], the IC50 in assay [1] stood at 5.97 ± 1.06 µM; in assay [2], 2.88 ± 0.72 µM.
In the same order, the values of `CCCCCCCCCCCC=C1CCC(OCCOP(=O)([O-])OCC[N+]2(C)CCOCC2)CC1` (stereo not drawn) [Example 3, 1-{2-{[(4-Dodecylidenecyclohexyloxy)ethyloxy]hydroxyphosphinyloxy}ethyl}-1-methylmorpholinium inner salt] are 16.5 ± 1.8 µM and 50.7 ± 3.6 µM.
For `C[N+]1(CCOP(=O)([O-])OCCCCCCCCCCC=C2CCCCC2)CCOCC1` [Example 15, 1-{2-[(11-Cyclohexylideneundecyloxy)hydroxyphosphinyloxy]ethyl}-1-methylmorpholinium inner salt], in that order: 22.8 ± 1.7 µM and 8.25 ± 0.25 µM.
In the same order, the values of `CCCCCCCCCCCC=C1CCC(OCCOP(=O)([O-])OCC[N+](C)(C)C)CC1` (stereo not drawn) [Example 1, 1-{2-{[(4-Dodecylidenecyclohexyloxy)ethyloxy]hydroxyphosphinyloxy}ethyl}-N,N,N-trimethylammonium inner salt] are 3.25 ± 0.65 µM and 7.08 ± 1.2 µM.
`C[N+](C)(C)CCOP(=O)([O-])OCCCCC=C1C2CC3CC(C2)CC1C3` [Example 16, 1-{2-[(5-Adamantylidenepentyloxy)hydroxyphosphinyloxy]ethyl}-N,N,N-trimethylammonium inner salt]: the IC50 in assay [1] is above 100 µM; in assay [2], 4.99 ± 1.5 µM.
For `CCCCCCCCCCCCCCCC=C1CCC(OCCOP(=O)([O-])OCC[N+]2(C)CCCCC2)CC1` (stereo not drawn) [Example 8, 1-{2-{[(4-Hexadecylidenecyclohexyloxy)ethyloxy]hydroxyphosphinyloxy}ethyl}-1-methylpiperidinium inner salt], in that order: 6.5 ± 1.7 µM and 22 ± 1.99 µM.
In the same order, the values of `CCCCCCCCCCCCCCCC=C1CCC(OCCOP(=O)([O-])OCC[N+]2(C)CCOCC2)CC1` (stereo not drawn) [Example 9, 1-{2-{[(4-Hexadecylidenecyclohexyloxy)ethyloxy]hydroxyphosphinyloxy}ethyl}-1-methylmorpholinium inner salt] are 3.7 ± 0.71 µM and 16.2 ± 2.29 µM.
With `C[N+]1(CCOP(=O)([O-])OCCCCCCCCCCC=C2CCCCC2)CCCCC1` [Example 14, 1-{2-[(11-Cyclohexylideneundecyloxy)hydroxyphosphinyloxy]ethyl}-1-methylpiperidinium inner salt], the IC50 in assay [1] was 47.6 ± 7.33 µM; in assay [2], 8.7 ± 1 µM.
As for `C[N+]1(CCOP(=O)([O-])OCCCCC=C2C3CC4CC(C3)CC2C4)CCOCC1` [Example 18, 1-{2-[(5-Adamantylidenepentyloxy)hydroxyphosphinyloxy]ethyl}-1-methylmorpholinium inner salt], the IC50 in assay [1] is above 100 µM; in assay [2] it was 46.9 ± 8.7 µM.
For `C[N+]1(CCOP(=O)([O-])OCCCCC=C2CCCCC2)CCOCC1` [Example 12, 1-{2-[(5-Cyclohexylidenepentyloxy)hydroxyphosphinyloxy]ethyl}-1-methylmorpholinium inner salt], in that order: above 100 µM and above 100 µM.
As to `C[N+]1(CCOP(=O)([O-])OCCCCC=C2CCCCC2)CCCCC1` [Example 11, 1-{2-[(5-Cyclohexylidenepentyloxy)hydroxyphosphinyloxy]ethyl}-1-methylpiperidinium inner salt], the IC50 in assay [1] and in assay [2] was above 100 µM throughout.
`C[N+]1(CCOP(=O)([O-])OCCCCCCCCCCC=C2C3CC4CC(C3)CC2C4)CCOCC1` [Example 21, 1-{2-[(11-Adamantylideneundecyloxy)hydroxyphosphinyloxy]ethyl}-1-methylmorpholinium inner salt]: the values for the IC50 in assay [1] and in assay [2] were 6.64 ± 1.2 µM and 5.09 ± 1.86 µM, respectively.
For `C[N+]1(CCOP(=O)([O-])OCCCCCCCCCCC=C2C3CC4CC(C3)CC2C4)CCCCC1` [Example 20, 1-{2-[(11-Adamantylideneundecyloxy)hydroxyphosphinyloxy]ethyl}-1-methylpiperidinium inner salt], in that order: 22.6 ± 3.4 µM and 5.41 ± 1.14 µM.
In the same order, the values of `C[N+]1(CCOP(=O)([O-])OCCCCC=C2C3CC4CC(C3)CC2C4)CCCCC1` [Example 17, 1-{2-[(5-Adamantylidenepentyloxy)hydroxyphosphinyloxy]ethyl}-1-methylpiperidinium inner salt] are above 100 µM and above 100 µM.
`C[N+](C)(C)CCOP(=O)([O-])OCCCCCC12CC3CC(CC(C3)C1)C2` [Example 29, 1-{2-[(5-Adamantylpentyloxy)hydroxyphosphinyloxy]ethyl}-N,N,N-trimethylammonium inner salt]: the IC50 in assay [1] was above 100 µM; in assay [2], 4.02 ± 2.3 µM.
In the same order, the values of `CCCCCCCCCCCCC1CCC(OCCOP(=O)([O-])OCC[N+](C)(C)C)CC1` (stereo not drawn) [Example 26, 1-{2-{[(4-Dodecylcyclohexyloxy)ethyloxy]hydroxyphosphinyloxy}ethyl}-N,N,N-trimethylammonium inner salt] are 5.65 ± 1.93 µM and 9.49 ± 1.4 µM.
`CCCCCCCCCCCCCC=C1CCC(OCCOP(=O)([O-])OCC[N+](C)(C)C)CC1` (stereo not drawn) [Example 4, 1-{2-{[(4-Tetradecylidenecyclohexyloxy)ethyloxy]hydroxyphosphinyloxy}ethyl}-N,N,N-trimethylammonium inner salt]: the IC50 amounted to 5.25 ± 0.45 µM in assay [1] and 3.91 ± 0.21 µM in assay [2].
For `CCCCCCCCCCCCCCC1CCC(OCCOP(=O)([O-])OCC[N+](C)(C)C)CC1` (stereo not drawn) [Example 27, 1-{2-{[(4-Tetradecylcyclohexyloxy)ethyloxy]hydroxyphosphinyloxy}ethyl}-N,N,N-trimethylammonium inner salt], in that order: 23.3 ± 3.5 µM and 23.7 ± 4.4 µM.
In the case of `C[N+](C)(C)CCOP(=O)([O-])OCCCCC=C1CCCCC1` [Example 10, 1-{2-[(5-Cyclohexylidenepentyloxy)hydroxyphosphinyloxy]ethyl}-N,N,N-trimethylammonium inner salt], the IC50 in assay [1] and in assay [2] was above 100 µM throughout.
`CCCCCCCCCCCCCC=C1CCC(OCCOP(=O)([O-])OCC[N+]2(C)CCCCC2)CC1` (stereo not drawn) [Example 5, 1-{2-{[(4-Tetradecylidenecyclohexyloxy)ethyloxy]hydroxyphosphinyloxy}ethyl}-1-methylpiperidinium inner salt]: the IC50 in assay [1] came out at 11.4 ± 2.4 µM; in assay [2], 29.7 ± 3.6 µM.
For `C[N+](C)(C)CCOP(=O)([O-])OCCCCCCCCCCCC1CCCCC1` [Example 28, 1-{2-[(11-Cyclohexylundecyloxy)hydroxyphosphinyloxy]ethyl}-N,N,N-trimethylammonium inner salt], in that order: 8.4 ± 0.8 µM and 10.3 ± 1.3 µM.
